Values quoted from earlier work in patent publication US11058615B1, “Cosmetic dermal serum with skin rejuvenation properties” (Key Element LLC, priority 2018, dated 2021).

Tests used:
skin blemishes = settings: recent clinical studies (ncbi.nlm.nih.gov/pubmed/18492184)
hyperpigmentation = hyperpigmentation caused by exposure to UVA and UVB

## O=C1O[C@H]([C@@H](O)CO)C([O-])=C1OP(=O)([O-])[O-].[Na+].[Na+].[Na+] [SAP, Sodium Ascorbyl Phosphate]
Skin blemishes
  efficacy to fight skin blemishes: significant efficacy
hyperpigmentation
  efficacy in helping to normalize skin tone: excellent efficacy
